Laboratory results from PubChem BioAssay (NCI).
Where “and” joins values, the source holds several entries; their conditions need not be identical. Equal values may be shown once.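 Grown in 96-well plates, cells were treated for 48 hours with each compound at five concentrations. Insufficient inhibition: endpoint recorded as highest concentration tested. GI50: concentration for 50% inhibition of growth. TGI: total growth inhibition.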

Test system: MDA-MB-468 breast
Assay: NCI tumour cell line growth inhibition, 48 h

Compound | GI50 | TGI
O=C(CCCn1c2c(sc3ncccc32)c(=O)n2nnc(-c3ccccc3)c12)NCCc1cnc[nH]1 | 8.06 µM | 27.4 µM
Fc1ccc(-c2nc(-c3nc4ccc(Cl)cc4[nH]3)cc3c2[nH]c2ccccc23)cc1 | 2.43 µM | 11.5 µM
Nc1nc(N)c2cc(CNc3ccc(Cl)c(Cl)c3)ccc2n1 | 0.903 µM | 2.19 µM
CC/C(=N\Nc1nc2ccccc2n1C)c1ccccn1 | 0.0284 µM | 0.207 µM
CSc1ccc2c(c1)c(CCN)c(C)n2Cc1ccc(Cl)c(Cl)c1 | 1.78 µM | 3.47 µM
CN(C)CC(C(=O)c1ccccc1)c1ccccc1 (centres undefined) | 0.95 µM | 2.63 µM
Cc1cccc(CN(C)c2ccc(CO)c(Cl)c2)c1 | 0.0572 µM | 0.176 µM
CCc1nn2c(C)cc(C)nc2c1Cc1ccc(/C=C/CN2CCN(CCOCCOCCN3CCN(C/C=C/c4ccc(Cc5c(CC)nn6c(C)cc(C)nc56)cc4)CC3)CC2)cc1 | 1.79 µM | 3.81 µM
CCN1CCC[C@H]1c1cc(O)c2c(c1OC)C[C@H]1C[C@H]3[C@H](N)C(=O)C(C(N)=O)=C(O)[C@@]3(O)C(=O)C1=C2O | 0.0446 µM | 0.717 µM
O=C1NC(=NCC(CO)c2ccccc2)S/C1=C\c1ccc2ncccc2c1 (centres undefined) | 8.8 µM | > 25 µM
O=C(N[C@H](c1ccc(Cl)c(Cl)c1)C1CNC1)c1ccc2cnccc2c1 | 1.85 µM | 10.4 µM
CCCCCCN(CCCCCC)CCCNc1nccc2ccccc12 | 1.34 µM | 2.91 µM
COc1cc2c(cc1OC)C(CCc1ccc(Cl)cc1)N(C)CC2 (centres undefined) | 16.3 µM | 38.1 µM
N/C(=N\O)c1ncc(-c2ccc(C(F)(F)F)cc2)c(NC2CCCCCC2)n1 | 8.27 µM and 3.63 µM | 17.9 µM
COc1cc(/C=C/C(=O)C(=Cc2ccc(F)c(F)c2)C(=O)/C=C/c2ccc(O)c(OC)c2)ccc1O | 1.7 µM | 3.47 µM
COc1ccc(CN2c3ccccc3Sc3ccccc32)cc1F | 0.309 µM | 53.4 µM
O=C1Cc2cc(CCn3ccnc3)c(Cl)cc2N1 | 2.74 µM | 11.3 µM
CCNC(=O)Oc1ccc(/C(=C(/C)c2ccccc2)c2ccc(OCCN3CCCCCC3)cc2)cc1 | 2.06 µM | 5.63 µM
CC(C)=CC/C=C(/C)[C@H]1CC[C@]2(C)[C@@H]1CC[C@@H]1[C@@]3(C)CCC(=O)NC(C)(C)[C@@H]3CC[C@]12C | 16.5 µM | 34.2 µM

Compound | GI50 | TGI
Oc1nc(NCCc2ccccc2)sc1/C=C1\C=Nc2ncccc21 | 1.51 µM and 2.05 µM | 3.6 µM and 6.37 µM
C=C1CC[C@@H]2C(C)(C)[C@@H](O)CC[C@@]2(C)[C@@H]1COc1ccc2ccc(=O)oc2c1 | 6.36 µM | 25.9 µM
CCCNc1nc(N(C)O)nc(N(C)O)n1 | 2.75 µM | > 70.7 µM
O=S(=O)(NCCNc1nccc(-c2c(-c3cccc(O)c3)nc3sccn23)n1)c1ccc(F)cc1 | 2.62 µM | 24.2 µM
C=C1C(=O)O[C@@H]2C[C@@H](C)/C=C\C(=O)[C@](C)(OC(C)=O)C[C@H](OC(=O)/C(C)=C\C)[C@@H]12 | 1.01 µM | 5.08 µM
COc1cc(CNC(=O)/C=C/C=C/c2ccc3c(c2)OCO3)ccc1OCc1cn(-c2ccc(Cl)c(Cl)c2)nn1 | 0.788 µM | 2.46 µM
N#Cc1ccc(Oc2nccc(-c3c(-c4ccc(F)cc4)ncn3C3CCNCC3)n2)cc1 | 5.91 µM | > 25 µM
CCOc1ccc(Cc2nccc3cc(OCC)c(OCC)cc23)cc1OCC | 2.29 µM | 18.3 µM
CCCc1cc(=O)oc2c(C(=O)CC(C)C)c(O)c(CC=C(C)C)c(O)c12 | 3.72 µM | 27 µM
O=C(Nc1cccc(Cl)c1)Nc1cccc(Cl)c1 | 0.0456 µM | 43.6 µM
c1cncc(CNc2ccccc2-c2nnc(Nc3ccc4c(c3)OCO4)o2)c1 | 0.153 µM | > 100 µM
O=C1NC(=NCc2cccs2)SC1Cc1ccc2ncccc2c1 (centres undefined) | 11.8 µM | > 25 µM
Cc1ccc(/C=C(\C#N)n2nnc3cc(Cl)c(Cl)cc32)cc1 | 2.4 µM | 6.65 µM
COC(=O)[C@]12CC[C@@H](C)[C@H](C)[C@@H]1C1=CC[C@@H]3[C@@]4(C)C[C@@H](OC(=O)c5ccco5)[C@H](O)[C@@](C)(CO)[C@@H]4[C@H](O)C[C@@]3(C)[C@]1(C)CC2 | 2.34 µM | 6.54 µM
CCN1CCN(CCOc2ccc(CNc3ccc4nc(CCC5CCCCC5)[nH]c4c3)cc2)CC1 | 1.67 µM | 4.11 µM
Cn1cc(-c2csc(-c3c[nH]c4ncccc34)n2)c2cc(Br)cnc21 | 0.812 µM | 56.7 µM
C=CCN1C(=O)/C(=c2\sc3n(c2=O)C2C(NN=3)N(CC)C(=O)N2CC)c2ccccc21 (centres undefined) | 0.293 µM | 3.75 µM
O=C1C2=C(C(=O)c3c(O)ccc(O)c31)N(c1ccc(N3CCOCC3)nc1)Cc1ccccc1O2 | 0.217 µM | 0.516 µM
